Measurements reported in BigSolDB 2.1.

Cc1cc(C#N)c(Nc2ccccc2[N+](=O)[O-])s1
Conditions | solubility (mole fraction)
in DMSO, 292.15 K | 0.0519
in DMSO, 297.15 K | 0.0588
in DMSO, 301.15 K | 0.0671
in DMSO, 306.15 K | 0.0734
in DMSO, 310.15 K | 0.0801
in DMSO, 316.15 K | 0.0913
in DMSO, 320.15 K | 0.101
in DMSO, 325.15 K | 0.112
in DMSO, 328.15 K | 0.123
in DMSO, 332.15 K | 0.135
in acetic acid, 293.15 K | 0.00487
in acetic acid, 297.15 K | 0.00588
in acetic acid, 302.15 K | 0.00725
in acetic acid, 307.15 K | 0.00881
in acetic acid, 311.15 K | 0.0109
in acetic acid, 316.15 K | 0.0127
in acetic acid, 320.15 K | 0.0159
in acetic acid, 325.15 K | 0.0202
in acetic acid, 329.15 K | 0.0248
in acetic acid, 333.15 K | 0.0306
in acetone, 292.15 K | 0.0262
in acetone, 296.15 K | 0.0322
in acetone, 302.15 K | 0.0377
in acetone, 305.15 K | 0.0444
in acetone, 311.15 K | 0.0513
in acetone, 316.15 K | 0.0604
in ethanol, 292.15 K | 0.00106
in ethanol, 296.15 K | 0.00131
in ethanol, 302.15 K | 0.00163
in ethanol, 306.15 K | 0.00214
in ethanol, 311.15 K | 0.00274
in ethanol, 315.15 K | 0.00345
in ethanol, 320.15 K | 0.00427
in ethanol, 325.15 K | 0.00528
in ethanol, 329.15 K | 0.00638
in ethanol, 334.15 K | 0.00766
in ethyl acetate, 293.15 K | 0.0199
in ethyl acetate, 296.15 K | 0.0227
in ethyl acetate, 302.15 K | 0.0255
in ethyl acetate, 306.15 K | 0.0315
in ethyl acetate, 311.15 K | 0.0379
in ethyl acetate, 315.15 K | 0.0442
in ethyl acetate, 320.15 K | 0.0494
in ethyl acetate, 324.15 K | 0.0591
in ethyl acetate, 329.15 K | 0.0713
in ethyl acetate, 333.15 K | 0.0858
in methanol, 292.15 K | 0.00109
in methanol, 297.15 K | 0.00145
in methanol, 302.15 K | 0.00186
in methanol, 306.15 K | 0.00233
in methanol, 311.15 K | 0.00291
in methanol, 315.15 K | 0.00368
in methanol, 320.15 K | 0.00464
in methanol, 324.15 K | 0.00575
